Patent US12139498B1, “Positive allosteric modulators of the muscarinic acetylcholine receptor M4” (Vanderbilt University, priority 2023, dated 2024)

Assays:
[1] = In vivo pharmacokinetics in rat
Experimental: Compound 70 was tested in several in vivo assays and the pharmacokinetic parameters listed in the following table may be determined from pharmacokinetic studies in rat, dog, or cynomolgus monkey, according to known methods as generally described in the following references: Garrison et al. J. Med. Chem. 2022, 65, 6273-6286; Felts et al. J. Med. Chem 2017, 60, 5072-5085; and Yu et al. J. Med. Chem. 2021, 64, 4709-4729.

P450 2D6 = P450 2D6 (Homo sapiens, UniProt P10635); experiment: P450 2D6 inhibition; format: in vitro ADME
Experimental: (§1) Compound 70 was tested in several in in vitro assays to investigate both metabolism and pharmacokinetics. These assays may be performed according to known methods as generally described in the following references: Conde-Ceide et al. ACS Med. Chem. Lett. 2015, 6, 716-720; Morris et al. J. Med. Chem. 2014, 57, 10192-10197; and Bubser et al. ACS Chem. Neurosci. 2014, 5, 920-942.

[2] = test system: 68 primary molecular targets; experiment: Eurofins LeadProfilingScreen off-target panel (binding); conditions: 10 μM (binding), all targets except human muscarinic 2
Experimental: Compound 70 was tested using Eurofins LeadProfilingScreen®, which detects potential off-target activity and determines relative selectivity. The screen includes 68 primary molecular targets, including several CNS targets recommended by the EMEA (European Medicines Evaluation Agency) to evaluate drug dependence potential.

P450 1A2 = molecular target: T1, P450 1A2 (Homo sapiens, UniProt P05177); experiment: P450 1A2 inhibition; format: in vitro ADME
T1 sequence (P05177 1-516): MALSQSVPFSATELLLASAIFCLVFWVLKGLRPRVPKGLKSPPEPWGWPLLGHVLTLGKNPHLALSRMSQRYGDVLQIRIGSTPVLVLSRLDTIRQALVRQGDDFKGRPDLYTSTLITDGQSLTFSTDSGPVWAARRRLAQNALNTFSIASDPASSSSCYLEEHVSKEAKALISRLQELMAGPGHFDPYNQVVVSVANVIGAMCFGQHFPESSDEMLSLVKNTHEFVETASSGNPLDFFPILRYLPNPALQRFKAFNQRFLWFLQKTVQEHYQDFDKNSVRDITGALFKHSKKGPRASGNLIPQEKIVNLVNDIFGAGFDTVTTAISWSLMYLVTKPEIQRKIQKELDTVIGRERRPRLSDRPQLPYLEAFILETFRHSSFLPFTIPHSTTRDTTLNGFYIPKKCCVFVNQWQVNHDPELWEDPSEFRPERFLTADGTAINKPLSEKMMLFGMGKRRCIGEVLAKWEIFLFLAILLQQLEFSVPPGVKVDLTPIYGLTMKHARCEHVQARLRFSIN
Experimental: as §1

Chain of P450 2D6 (P10635 whole entry): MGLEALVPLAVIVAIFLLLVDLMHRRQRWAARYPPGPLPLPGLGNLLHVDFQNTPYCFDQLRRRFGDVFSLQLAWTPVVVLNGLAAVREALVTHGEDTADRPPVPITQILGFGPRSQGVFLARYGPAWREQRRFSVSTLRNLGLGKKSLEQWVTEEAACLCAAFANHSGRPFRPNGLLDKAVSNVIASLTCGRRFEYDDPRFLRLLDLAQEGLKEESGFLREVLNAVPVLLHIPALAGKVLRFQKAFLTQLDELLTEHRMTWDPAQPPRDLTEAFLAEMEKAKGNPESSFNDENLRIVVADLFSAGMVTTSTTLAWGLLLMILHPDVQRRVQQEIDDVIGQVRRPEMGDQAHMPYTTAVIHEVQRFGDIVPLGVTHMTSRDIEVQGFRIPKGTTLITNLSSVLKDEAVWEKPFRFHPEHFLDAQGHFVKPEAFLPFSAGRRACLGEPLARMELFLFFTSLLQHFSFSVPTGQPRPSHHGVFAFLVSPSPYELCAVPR

Cc1c(N2CCc3nc(C4(F)CC4)sc3C2)nc2nn(C)c(=O)n2c1C [Compound 70, 7-(2-(1-fluorocyclopropyl)-6,7-dihydrothiazolo[5,4-c]pyridin-5(4H)-yl)-2,5,6-trimethyl-[1,2,4]triazolo[4,3-a]pyrimidin-3(2H)-one]
Kp ([1]; brain / plasma): 1.4
Kp uu ([1]; brain / plasma, unbound): 0.3
Rat oral F (3 mg/kg) ([1]; oral 3 mg/kg): >100%
clearance ([1]; plasma, read-out: Rat CLp): 4.3 mL/min/kg
half-life ([1]; plasma, read-out: Rat Elim. t1/2 (converted)): 3.1 h
Vd ([1]; plasma, read-out: Rat Vss): 0.7 L/kg
IC50 (P450 2D6): > 30 µM
inhibition of each target in the LeadProfilingScreen [2]: < 50%
IC50 (P450 1A2): > 30 µM
